Data on 2 molecules can be found in patent US20030176314A1, “Compounds for the treatment of pain” (priority 2001, published 2003).

As usually defined, the Ki is the dissociation constant of the complex between target and ligand, obtained from inhibition or displacement.

The target of test [1] is T1, human α1D adrenergic receptor (Homo sapiens, UniProt P25100).
T1 construct: host or cells: LM(tk-) cells, line L-α1A
T1 sequence (P25100 1-572): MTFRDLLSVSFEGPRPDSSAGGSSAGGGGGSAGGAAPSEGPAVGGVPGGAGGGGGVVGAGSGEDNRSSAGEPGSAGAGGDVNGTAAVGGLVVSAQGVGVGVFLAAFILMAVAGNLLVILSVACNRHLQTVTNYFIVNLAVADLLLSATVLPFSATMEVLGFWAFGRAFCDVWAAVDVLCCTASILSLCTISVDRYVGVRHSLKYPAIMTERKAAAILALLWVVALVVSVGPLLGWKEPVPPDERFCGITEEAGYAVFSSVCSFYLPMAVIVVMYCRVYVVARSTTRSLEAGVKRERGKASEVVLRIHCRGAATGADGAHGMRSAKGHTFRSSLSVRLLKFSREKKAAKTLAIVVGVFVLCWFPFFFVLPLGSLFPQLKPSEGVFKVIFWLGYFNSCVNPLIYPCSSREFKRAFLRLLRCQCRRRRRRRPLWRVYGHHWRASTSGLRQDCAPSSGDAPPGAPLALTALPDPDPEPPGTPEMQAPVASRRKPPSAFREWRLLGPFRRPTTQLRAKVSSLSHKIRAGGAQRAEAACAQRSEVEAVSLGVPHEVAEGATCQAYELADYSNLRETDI
The test can be described thus: Binding at human α1D adrenergic receptor. The settings on record: Table 8; read-out: hα1D Ki. The source says:
α1 Human Adrenergic Receptors: To determine the binding of compounds to human α1 receptors, LM(tk−) cell lines stably transfected with the genes encoding the α1a, α1b, and α1d receptors were used. The nomenclature describing the α1 receptors was changed recently, such that the receptor formerly designated α1a is now designated α1d, and the receptor formerly designated α1c is now designated α1a. The cell lines expressing these receptors were deposited with the ATCC before the nomenclature change and reflect the subtype designations formerly assigned to these receptors. Thus, the cell line expressing the receptor described herein as the α1a receptor was deposited with the ATCC on Sep. […] The cell line expressing receptor described herein as the α1d receptor was deposited with the ATCC on Sep. […] The cell line expressing the α1b receptor is designated L-α1B, and was deposited on Sep.
(§1) The binding affinity (Ki) of these compounds were tested according to the protocols described herein at the following receptors; human α1A, α1B, α1D, α2A, α2B, and α2C adrenergic receptors; human Y1, Y2, Y4, and Y5 receptors; and N-Methyl-D-aspartic acid (NMDA) receptor channels. The binding interactions of these compounds were additionally tested at the norepinephrine (NE) transporter (NE uptake) and serotonin (5-hydroxytryptamine (5HT)) transporter (5HT uptake) according to protocols described herein

The test system of test [2] is distension induced contractions of the rat bladder. Briefly: Distension-induced rhythmic contraction (DIRC) model, micturition reflex in anesthetized rats. It is filed as in vivo. From the text: This model is widely considered to be predictive for the actions of drugs to treat human urge incontinence (also refered to as detrusor instability or unstable bladder). Examples of drugs that are active in this model which also are used therapeutically in humans include oxybutynin and baclofen (Morikawa et al, 1992); imipramine and nortriptyline (Pietra et al, 1990); and nifedipine and terodiline (Guarneri et al, 1993).
Female Sprague Dawley rats weighing approximately 300 g were anesthetized with subcutaneous urethane (1.2 g/kg). The trachea was cannulated with PE240 tubing to provide a clear airway throughout the experiment. A midline abdominal incision was made and the left and right ureters were isolated. The ureters were ligated distally (to prevent escape of fluids from the bladder) and cannulated proximally with PE10 tubing. The incision was closed using 4-0 silk sutures, leaving the PE10 lines routed to the exterior for the elimination of urine. The bladder was canulated via the transurethral route using PE50 tubing inserted 2.5 cm beyond the urethral opening. This cannula was secured to the tail using tape and connected to a pressure transducer. To prevent leakage from the bladder, the cannula was tied tightly to the exterior urethral opening using 4-0 silk.
To initiate the micturition reflex, the bladder was first emptied by applying pressure to the lower abdomen, and then filled with normal saline in 100 μl increments (maximum=2 ml) until spontaneous bladder contractions occurred (typically 20-40 mmHg at a rate of one contraction every 2 to 3 minutes. Once a regular rhythm was established, vehicle (saline) or test compounds were administered i.v. to examine their effects on bladder activity. The effect of a compound which inhibited the micturition reflex was expressed as its “disappearance time”, defined as the time between successive bladder contractions in the presence of the test compound minus the time between contractions before compound administration.

The target of test [3] is T2, human α2A adrenergic receptor (Homo sapiens, UniProt P08913).
T2 construct: host or cells: LM(tk-) cells, line L-α2A
T2 sequence (P08913 1-465): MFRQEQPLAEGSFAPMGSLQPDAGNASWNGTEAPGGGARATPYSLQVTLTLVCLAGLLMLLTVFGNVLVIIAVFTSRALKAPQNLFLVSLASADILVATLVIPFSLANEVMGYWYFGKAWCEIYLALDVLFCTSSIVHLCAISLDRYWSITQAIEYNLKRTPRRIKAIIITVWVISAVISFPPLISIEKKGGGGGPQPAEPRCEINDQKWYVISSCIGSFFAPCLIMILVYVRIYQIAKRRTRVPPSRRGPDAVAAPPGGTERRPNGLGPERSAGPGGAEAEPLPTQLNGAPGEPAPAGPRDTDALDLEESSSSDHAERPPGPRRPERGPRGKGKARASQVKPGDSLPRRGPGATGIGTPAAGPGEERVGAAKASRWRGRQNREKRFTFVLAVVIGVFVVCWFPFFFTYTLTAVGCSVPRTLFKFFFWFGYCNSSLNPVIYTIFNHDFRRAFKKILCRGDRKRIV
Briefly: Binding at human α2A adrenergic receptor. Conditions: Table 8; read-out: hα2A Ki.
Description: α2 Human Adrenergic Receptors: To determine the binding of compounds to human α2 receptors, LM(tk−) cell lines stably transfected with the genes encoding the α2A, α2B, and α2C receptors were used. The cell line expressing the α2A receptor is designated L-α2A, and was deposited on Nov. 6, 1992, under ATCC Accession No. CRL 11180. The cell line expressing the α2B receptor is designated L-NGC-α2B, and was deposited on Oct. 25, 1989, under ATCC Accession No. CRL 10275. The cell line expressing the α2C receptor is designated L-α2C, and was deposited on Nov. 6, 1992, under ATCC Accession No. CRL-11181. Cell lysates were prepared as described herin, and suspended in 25 mM glycyiglycine buffer (pH 7.6 at room temperature). Equilibrium competition binding assay were performed using […] (0.5 nM), and nonspecific binding was determined by incubation with 10 μM phentolamine. The bound radioligand was separated by filtration through GF/B filters using a cell harvester.
as §1

On to `Cc1nc(NC(=N)N)nc2ccc3ccccc3c12` [Compound 1007A], for which the Ki in test [1] is 8.58 µM.

With `Cc1cc(NC(=N)N)nc2ccc(Cl)cc12` [Compound 4005A, N-(6-chloro-4-methyl-2-quinolinyl)guanidine], the “inhibition of distention-induced contractions of the rat bladder” value in test [2] (1 mg/kg, i.v.) is given as “complete inhibition”. The “time for which inhibition of bladder activity persisted” value in test [2] (i.v. administration, anesthetized rat (figure legends)) is reported as 35 min. In addition, the Ki in test [3] stood at 0.199 µM.
